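1) Cells in 96-well plates. 2) Compound, 48 h, 5 concentrations. 3) Linear interpolation between surrounding doses. 4) Unreached endpoint = highest concentration. Abbreviation: GI50, concentration required for 50% inhibition of growth.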 Active and inactive are the calls of the source. No stated cut-off is given here; in the data, active = GI50 up to about 1.1 µM and inactive = higher.
Columns and labels:
Assay in all cases: growth of human tumour cells (NCI), 48 h
786-0 = system: 786-0
ACHN = system: ACHN
BT-549 = system: BT-549
EKVX = system: EKVX
HCT-116 = system: HCT-116
HOP-62 = system: HOP-62
HOP-92 = system: HOP-92
Hs-578T = system: Hs-578T
LOX IMVI = system: LOX IMVI
MCF7 = system: MCF7
NCI-H23 = system: NCI-H23
OVCAR-3 = system: OVCAR-3
OVCAR-4 = system: OVCAR-4
RXF 393 = system: RXF 393
SF-268 = system: SF-268
SK-OV-3 = system: SK-OV-3
SW-620 = system: SW-620
U-251 = system: U-251
A498 = system: A498
SR = system: SR

Row | Structure (SMILES) | GI50 (786-0) | GI50 (ACHN) | GI50 (BT-549) | GI50 (EKVX) | GI50 (HCT-116) | GI50 (HOP-62) | GI50 (HOP-92) | GI50 (Hs-578T) | GI50 (LOX IMVI) | GI50 (MCF7) | GI50 (NCI-H23) | GI50 (OVCAR-3) | GI50 (OVCAR-4) | GI50 (RXF 393) | GI50 (SF-268) | GI50 (SK-OV-3) | GI50 (SW-620) | GI50 (U-251) | GI50 (A498) | GI50 (SR)
1 | CC1OC(OC2C(OC(=O)[C@@H]3CC(C)(C)C[C@@H]4C5=CC[C@@H]6[C@@]7(C)C[C@H](O)[C@H](OC8OC(CO)C(O)C(O)C8O)[C@@](C)(CO)C7[C@H](O)C[C@@]6(C)[C@]5(C)C[C@@H](O)[C@H]43)OCC(O)C2O)C(O)C(O)C1O (some centres undefined) | > 15 µM (inactive) | > 15 µM (inactive) | > 15 µM (inactive) | 9.73 µM (inactive) | 7.57 µM (inactive) | > 15 µM (inactive) | > 15 µM (inactive) | > 15 µM (inactive) | > 15 µM (inactive) | > 15 µM (inactive) | 7.05 µM (inactive) | > 15 µM (inactive) | 12.9 µM (inactive) | 7.45 µM (inactive) | > 15 µM (inactive) | > 15 µM (inactive) | > 15 µM (inactive) | > 15 µM (inactive) | – | –
2 | C/C=C(/CBr)CCC(Br)C(C)(C)Cl.C/C=C(\CBr)CCC(Br)C(C)(C)Cl (centres undefined) | > 10 µM (inactive) | > 10 µM (inactive) | > 10 µM (inactive) | > 10 µM (inactive) | > 10 µM (inactive) | > 10 µM (inactive) | > 10 µM (inactive) | > 10 µM (inactive) | – | > 10 µM (inactive) | > 10 µM (inactive) | > 10 µM (inactive) | > 10 µM (inactive) | > 10 µM (inactive) | > 10 µM (inactive) | > 10 µM (inactive) | > 10 µM (inactive) | > 10 µM (inactive) | > 10 µM (inactive) | –
3 | CC(=O)Nc1ccc(S(=O)(=O)/N=c2/sc(S(N)(=O)=O)nn2C)cc1 | > 100 µM (inactive) | > 100 µM (inactive) | > 100 µM (inactive) | > 100 µM (inactive) | > 100 µM (inactive) | > 100 µM (inactive) | > 100 µM (inactive) | – | – | – | > 100 µM (inactive) | > 100 µM (inactive) | > 100 µM (inactive) | > 100 µM (inactive) | > 100 µM (inactive) | > 100 µM (inactive) | > 100 µM (inactive) | > 100 µM (inactive) | > 100 µM (inactive) | > 100 µM (inactive)
4 | CNC(=O)c1nn[nH]c1O | > 100 µM (inactive) | > 100 µM (inactive) | – | > 100 µM (inactive) | > 100 µM (inactive) | > 100 µM (inactive) | > 100 µM (inactive) | 98.4 µM (inactive) | > 100 µM (inactive) | > 100 µM (inactive) | > 100 µM (inactive) | – | – | > 100 µM (inactive) | > 100 µM (inactive) | > 100 µM (inactive) | > 100 µM (inactive) | > 100 µM (inactive) | > 100 µM (inactive) | > 100 µM (inactive)
5 | CSc1ccc(C(=O)C(=O)c2ccc(SC)s2)s1 | 6.64 µM (inactive) | > 10 µM (inactive) | – | > 10 µM (inactive) | > 10 µM (inactive) | 3.93 µM (inactive) | > 10 µM (inactive) | 3.46 µM (inactive) | > 10 µM (inactive) | 5.58 µM (inactive) | > 10 µM (inactive) | > 10 µM (inactive) | 7.24 µM (inactive) | > 10 µM (inactive) | > 10 µM (inactive) | > 10 µM (inactive) | > 10 µM (inactive) | > 10 µM (inactive) | – | 3.92 µM (inactive)
6 | Clc1ccc(OCc2nnc(CCCCCCCCc3nnc(COc4ccc(Cl)cc4Cl)o3)o2)c(Cl)c1 | 47.1 µM (inactive) | > 100 µM (inactive) | > 100 µM (inactive) | > 100 µM (inactive) | 15.7 µM (inactive) | – | 41.1 µM (inactive) | – | – | 42.3 µM (inactive) | > 100 µM (inactive) | – | 92.9 µM (inactive) | > 100 µM (inactive) | 42 µM (inactive) | > 100 µM (inactive) | > 100 µM (inactive) | > 100 µM (inactive) | > 100 µM (inactive) | –
7 | CNC(=O)C(C)C1C(=O)/C(=C(O)/C=C\C(C)=C\C(C)C2OC3(C)OC(C=CC34CO4)C2C)C(=O)N1C1CCC(O)C(C)O1 (centres undefined) | > 100 µM (inactive) | > 100 µM (inactive) | > 100 µM (inactive) | > 100 µM (inactive) | > 100 µM (inactive) | > 100 µM (inactive) | – | – | – | > 100 µM (inactive) | – | > 100 µM (inactive) | – | > 100 µM (inactive) | > 100 µM (inactive) | > 100 µM (inactive) | > 100 µM (inactive) | > 100 µM (inactive) | > 100 µM (inactive) | > 100 µM (inactive)
8 | CCOC(CN(C)C(=O)Nc1cccc2ccccc12)OCC | > 10 µM (inactive) | > 10 µM (inactive) | – | > 10 µM (inactive) | > 10 µM (inactive) | > 10 µM (inactive) | > 10 µM (inactive) | > 10 µM (inactive) | > 10 µM (inactive) | > 10 µM (inactive) | > 10 µM (inactive) | > 10 µM (inactive) | > 10 µM (inactive) | > 10 µM (inactive) | > 10 µM (inactive) | > 10 µM (inactive) | > 10 µM (inactive) | > 10 µM (inactive) | > 10 µM (inactive) | > 10 µM (inactive)
9 | NC(=O)c1nnsc1NN=O | > 100 µM (inactive) | > 100 µM (inactive) | – | > 100 µM (inactive) | > 100 µM (inactive) | > 100 µM (inactive) | – | > 100 µM (inactive) | > 100 µM (inactive) | > 100 µM (inactive) | > 100 µM (inactive) | – | > 100 µM (inactive) | > 100 µM (inactive) | > 100 µM (inactive) | > 100 µM (inactive) | > 100 µM (inactive) | > 100 µM (inactive) | > 100 µM (inactive) | > 100 µM (inactive)
10 | COc1cc(C2c3cc4c(cc3[C@@H](Nc3ccc([N+](=O)[O-])cc3)C3COC(=O)[C@H]23)OCO4)cc(OC)c1O (some centres undefined) | 0.652 µM (active) | 0.25 µM (active) | 2.3 µM (inactive) | 3.37 µM (inactive) | 2.27 µM (inactive) | 0.321 µM (active) | 1.78 µM (inactive) | – | 0.459 µM (active) | 0.615 µM (active) | 0.569 µM (active) | 4.57 µM (inactive) | 12.2 µM (inactive) | 2.02 µM (inactive) | 2.01 µM (inactive) | 1.54 µM (inactive) | 1.5 µM (inactive) | 0.631 µM (active) | 0.676 µM (active) | 0.0552 µM (active)
11 | CCOC(=O)C1=COC(C)(CCc2ccccc2)CC1=O (centres undefined) | > 100 µM (inactive) | > 100 µM (inactive) | 71.4 µM (inactive) | > 100 µM (inactive) | 67.9 µM (inactive) | > 100 µM (inactive) | – | 45 µM (inactive) | – | 44 µM (inactive) | 95.5 µM (inactive) | 80.2 µM (inactive) | > 100 µM (inactive) | 59.4 µM (inactive) | > 100 µM (inactive) | > 100 µM (inactive) | > 100 µM (inactive) | 41.3 µM (inactive) | > 100 µM (inactive) | –
12 | COc1cc2c3c(c4cc(OC)c(OC)cc4c2cc1OC)[C@H](O)[C@@H]1CCCN1C3 | < 0.0321 µM (active) | < 0.0157 µM (active) | 0.144 µM (active) | < 0.0217 µM (active) | < 0.0215 µM (active) | < 0.0198 µM (active) | < 0.0478 µM (active) | – | < 0.0265 µM (active) | < 0.0173 µM (active) | < 0.0344 µM (active) | 0.0384 µM (active) | < 0.0234 µM (active) | – | < 0.0408 µM (active) | < 0.0237 µM (active) | < 0.0269 µM (active) | < 0.0245 µM (active) | < 0.0208 µM (active) | 0.029 µM (active)
13 | Cc1ccc2c(c1)NC(=O)CCSSCCC(=O)N2 | > 100 µM (inactive) | > 100 µM (inactive) | > 100 µM (inactive) | > 100 µM (inactive) | > 100 µM (inactive) | > 100 µM (inactive) | > 100 µM (inactive) | > 100 µM (inactive) | > 100 µM (inactive) | – | > 100 µM (inactive) | > 100 µM (inactive) | > 100 µM (inactive) | > 100 µM (inactive) | > 100 µM (inactive) | > 100 µM (inactive) | > 100 µM (inactive) | > 100 µM (inactive) | > 100 µM (inactive) | > 100 µM (inactive)
14 | O=C1/C(=C/c2ccc(Cl)cc2)N=C(c2ccccc2)N1c1ccc(S(=O)(=O)Nc2nccs2)cc1 | 46 µM (inactive) | 62.5 µM (inactive) | – | 31.5 µM (inactive) | 33.5 µM (inactive) | 62.2 µM (inactive) | 28.9 µM (inactive) | 64.4 µM (inactive) | 31.7 µM (inactive) | 26.1 µM (inactive) | 52.2 µM (inactive) | 30.5 µM (inactive) | 50.8 µM (inactive) | 33.4 µM (inactive) | 50.8 µM (inactive) | > 100 µM (inactive) | 39.8 µM (inactive) | 36.2 µM (inactive) | 43.6 µM (inactive) | 32.7 µM (inactive)
15 | COc1ccc(S(=O)(=O)Nc2ccc(-c3csc(N4C(=O)/C(=C/c5ccccc5)N=C4c4ccccc4)n3)cc2)cc1Cl | 46.5 µM (inactive) | 34.8 µM (inactive) | – | – | 35.3 µM (inactive) | 36.4 µM (inactive) | 24.4 µM (inactive) | 37.5 µM (inactive) | 32.5 µM (inactive) | 36.8 µM (inactive) | 23.2 µM (inactive) | 36.2 µM (inactive) | 27.2 µM (inactive) | 24.4 µM (inactive) | 31.4 µM (inactive) | 79.3 µM (inactive) | 43.7 µM (inactive) | 23.7 µM (inactive) | 11.3 µM (inactive) | 28.1 µM (inactive)

Source: ChEMBL document CHEMBL1201862, “PubChem BioAssay data set” (2004)
